# Measured values from ChEMBL document CHEMBL5291721, “A preclinical secondary pharmacology resource illuminates target-adverse drug reaction associations of marketed drugs” (Nat Commun, 2023).
# Assays:
# [1] = target: T1, Gastrin/cholecystokinin type B receptor (Homo sapiens, UniProt P32239)
# T1 sequence (P32239 whole entry): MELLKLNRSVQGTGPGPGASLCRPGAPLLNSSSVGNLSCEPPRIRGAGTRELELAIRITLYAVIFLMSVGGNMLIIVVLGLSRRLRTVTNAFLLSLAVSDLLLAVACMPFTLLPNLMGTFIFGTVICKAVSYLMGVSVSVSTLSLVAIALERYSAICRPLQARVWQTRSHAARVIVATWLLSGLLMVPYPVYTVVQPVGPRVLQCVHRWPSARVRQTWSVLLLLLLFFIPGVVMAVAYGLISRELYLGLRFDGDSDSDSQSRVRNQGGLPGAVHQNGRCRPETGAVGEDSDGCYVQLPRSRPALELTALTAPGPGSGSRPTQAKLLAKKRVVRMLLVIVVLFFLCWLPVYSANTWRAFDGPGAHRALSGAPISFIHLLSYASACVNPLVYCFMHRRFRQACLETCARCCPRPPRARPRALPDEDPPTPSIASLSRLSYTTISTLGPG
# [2] = target: T2, Cholecystokinin receptor type A (Homo sapiens, UniProt P32238)
# T2 sequence (P32238 whole entry): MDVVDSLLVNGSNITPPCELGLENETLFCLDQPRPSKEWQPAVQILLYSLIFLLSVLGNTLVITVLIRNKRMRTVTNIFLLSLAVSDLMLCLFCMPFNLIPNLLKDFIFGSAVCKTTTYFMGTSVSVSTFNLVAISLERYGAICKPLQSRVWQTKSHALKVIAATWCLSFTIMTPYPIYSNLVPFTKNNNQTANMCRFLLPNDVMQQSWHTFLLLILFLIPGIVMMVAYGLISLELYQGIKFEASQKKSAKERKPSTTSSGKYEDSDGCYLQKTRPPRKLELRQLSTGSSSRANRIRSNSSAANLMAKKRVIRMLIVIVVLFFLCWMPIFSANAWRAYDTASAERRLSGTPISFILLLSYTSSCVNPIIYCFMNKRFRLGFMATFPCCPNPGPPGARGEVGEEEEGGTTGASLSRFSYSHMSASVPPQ
# B2 bradykinin receptor = target: T3, B2 bradykinin receptor (Homo sapiens, UniProt P30411)
# T3 sequence (P30411 whole entry): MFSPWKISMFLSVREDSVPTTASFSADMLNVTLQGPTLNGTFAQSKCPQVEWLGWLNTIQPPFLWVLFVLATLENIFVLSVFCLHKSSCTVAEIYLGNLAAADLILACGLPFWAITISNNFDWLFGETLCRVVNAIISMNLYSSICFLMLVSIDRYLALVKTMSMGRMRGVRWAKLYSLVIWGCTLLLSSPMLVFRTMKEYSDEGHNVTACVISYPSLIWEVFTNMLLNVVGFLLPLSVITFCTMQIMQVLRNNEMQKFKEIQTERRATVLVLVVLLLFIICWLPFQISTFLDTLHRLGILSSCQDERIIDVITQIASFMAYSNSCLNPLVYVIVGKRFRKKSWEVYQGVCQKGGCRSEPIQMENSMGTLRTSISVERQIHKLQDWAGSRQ
# Cannabinoid receptor 1 [3] = target: T4, Cannabinoid receptor 1 (Homo sapiens, UniProt P21554)
# Adenosine receptor A2a = Adenosine receptor A2a (Homo sapiens, UniProt P29274)
# [4] = target: Kappa-type opioid receptor (Homo sapiens, UniProt P41145)
# Cannabinoid receptor 1 [5] = target: T4, Cannabinoid receptor 1; type: functional, cell-based
# [6] = target: T5, Muscarinic acetylcholine receptor M2 (Homo sapiens, UniProt P08172); type: functional, cell-based
# T5 sequence (P08172 whole entry): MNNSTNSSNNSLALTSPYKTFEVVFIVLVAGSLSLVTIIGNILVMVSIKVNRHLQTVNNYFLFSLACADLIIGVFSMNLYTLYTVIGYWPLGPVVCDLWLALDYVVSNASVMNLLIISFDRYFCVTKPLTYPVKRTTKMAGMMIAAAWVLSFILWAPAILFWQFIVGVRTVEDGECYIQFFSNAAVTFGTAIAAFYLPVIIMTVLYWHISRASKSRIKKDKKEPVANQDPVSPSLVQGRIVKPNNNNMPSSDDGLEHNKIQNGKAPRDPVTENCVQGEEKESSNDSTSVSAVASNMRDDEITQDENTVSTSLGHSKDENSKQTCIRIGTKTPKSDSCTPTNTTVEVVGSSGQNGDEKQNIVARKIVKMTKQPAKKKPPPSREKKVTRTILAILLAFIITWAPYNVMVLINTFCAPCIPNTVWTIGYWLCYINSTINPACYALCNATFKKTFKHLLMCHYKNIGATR
# [7] = target: Beta-2 adrenergic receptor (Homo sapiens, UniProt P07550); type: functional, cell-based
# Also: assay procedure not described here.
# Sequence of Kappa-type opioid receptor (P41145 whole entry): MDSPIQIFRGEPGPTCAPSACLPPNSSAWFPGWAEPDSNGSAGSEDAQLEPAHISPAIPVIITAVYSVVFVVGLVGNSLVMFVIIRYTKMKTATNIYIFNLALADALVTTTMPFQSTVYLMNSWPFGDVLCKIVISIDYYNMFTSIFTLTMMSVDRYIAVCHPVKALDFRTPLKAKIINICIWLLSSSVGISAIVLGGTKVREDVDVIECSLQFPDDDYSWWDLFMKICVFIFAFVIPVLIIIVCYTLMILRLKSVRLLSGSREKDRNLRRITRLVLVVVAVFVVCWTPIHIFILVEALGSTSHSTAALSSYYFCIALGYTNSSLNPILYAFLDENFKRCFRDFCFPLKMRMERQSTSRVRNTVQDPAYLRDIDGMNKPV
# T4 sequence (P21554 whole entry): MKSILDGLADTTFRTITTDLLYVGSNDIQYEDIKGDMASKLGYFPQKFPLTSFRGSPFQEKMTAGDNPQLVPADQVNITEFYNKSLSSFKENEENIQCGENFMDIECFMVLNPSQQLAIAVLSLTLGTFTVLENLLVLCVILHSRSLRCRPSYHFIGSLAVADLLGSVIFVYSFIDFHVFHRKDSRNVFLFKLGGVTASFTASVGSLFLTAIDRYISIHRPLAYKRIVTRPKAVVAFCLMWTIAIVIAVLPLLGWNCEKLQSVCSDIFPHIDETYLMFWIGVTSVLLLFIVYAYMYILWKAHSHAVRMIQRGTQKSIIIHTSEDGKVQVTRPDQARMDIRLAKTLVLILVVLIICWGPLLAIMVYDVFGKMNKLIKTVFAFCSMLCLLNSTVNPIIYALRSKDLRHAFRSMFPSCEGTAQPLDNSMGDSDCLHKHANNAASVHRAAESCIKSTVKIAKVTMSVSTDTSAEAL
# Sequence of Beta-2 adrenergic receptor (P07550 whole entry): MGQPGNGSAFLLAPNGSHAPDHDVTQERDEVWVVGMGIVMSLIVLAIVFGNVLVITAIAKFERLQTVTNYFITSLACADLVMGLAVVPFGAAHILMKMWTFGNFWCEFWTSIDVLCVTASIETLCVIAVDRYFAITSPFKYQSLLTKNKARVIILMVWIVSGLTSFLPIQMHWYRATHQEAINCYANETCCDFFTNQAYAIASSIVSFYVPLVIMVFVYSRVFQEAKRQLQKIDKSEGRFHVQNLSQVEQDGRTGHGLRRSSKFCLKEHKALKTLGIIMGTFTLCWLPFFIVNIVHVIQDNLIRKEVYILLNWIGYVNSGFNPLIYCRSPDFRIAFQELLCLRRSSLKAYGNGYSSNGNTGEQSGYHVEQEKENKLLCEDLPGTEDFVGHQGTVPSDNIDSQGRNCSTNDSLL
# Sequence of Adenosine receptor A2a (P29274 whole entry): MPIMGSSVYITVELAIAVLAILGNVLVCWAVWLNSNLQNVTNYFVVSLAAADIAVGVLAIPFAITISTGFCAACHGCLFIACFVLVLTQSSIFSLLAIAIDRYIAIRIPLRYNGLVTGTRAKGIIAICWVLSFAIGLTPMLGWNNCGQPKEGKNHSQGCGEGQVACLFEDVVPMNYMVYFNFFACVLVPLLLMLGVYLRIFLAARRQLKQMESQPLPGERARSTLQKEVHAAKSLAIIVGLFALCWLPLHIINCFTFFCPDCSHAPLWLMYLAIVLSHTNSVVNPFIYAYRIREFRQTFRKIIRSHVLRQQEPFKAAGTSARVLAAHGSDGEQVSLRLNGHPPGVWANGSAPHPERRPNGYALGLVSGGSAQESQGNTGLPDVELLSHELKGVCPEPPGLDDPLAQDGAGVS
SMILES,AC50 [1],AC50 [2],AC50 (B2 bradykinin receptor),AC50 (Cannabinoid receptor 1 [3]),AC50 (Adenosine receptor A2a),AC50 [4],AC50 (Cannabinoid receptor 1 [5]),AC50 [6],AC50 [7]
NCCCC(O)(P(=O)(O)O)P(=O)(O)O [ALENDRONIC ACID],> 30 µM,> 30 µM,> 30 µM,> 10 µM,> 30 µM,> 10 µM,,,
CC(=O)OCC(=O)[C@@]1(O)CC[C@H]2[C@@H]3CCC4=CC(=O)CC[C@]4(C)C3=CC[C@@]21C [ANECORTAVE ACETATE],,> 10 µM,> 10 µM,> 10 µM,> 10 µM,> 10 µM,> 30 µM,> 10 µM,
NS(=O)(=O)c1cc2c(cc1C(F)(F)F)NC(Cc1ccccc1)NS2(=O)=O (stereo not drawn) [BENDROFLUMETHIAZIDE],,> 10 µM,> 10 µM,> 10 µM,> 10 µM,> 10 µM,,> 10 µM,
CCCC(C)(COC(N)=O)COC(=O)NC(C)C (stereo not drawn) [CARISOPRODOL],> 30 µM,> 30 µM,> 30 µM,> 10 µM,> 30 µM,> 10 µM,> 30 µM,> 10 µM,> 30 µM
CCCCCCNC(=O)n1cc(F)c(=O)[nH]c1=O [CARMOFUR],> 30 µM,> 30 µM,> 30 µM,> 30 µM,> 30 µM,> 30 µM,,> 30 µM,
N[C@H](Cc1cc(I)c(Oc2cc(I)c(O)c(I)c2)c(I)c1)C(=O)O [DEXTROTHYROXINE],> 30 µM,> 30 µM,> 30 µM,> 10 µM,> 30 µM,> 10 µM,> 30 µM,> 10 µM,> 30 µM
CC(=O)OCC(CCn1cnc2cnc(N)nc21)COC(C)=O [FAMCICLOVIR],> 30 µM,> 30 µM,> 30 µM,> 10 µM,> 30 µM,> 10 µM,> 30 µM,> 10 µM,> 30 µM
Clc1ccc(C(Cn2ccnc2)OCc2ccc(Sc3ccccc3)cc2)c(Cl)c1 (stereo not drawn) [FENTICONAZOLE],> 30 µM,> 30 µM,> 30 µM,11 µM,> 30 µM,2.5 µM,> 30 µM,> 30 µM,
Nc1nc(F)nc2c1ncn2[C@@H]1O[C@H](COP(=O)(O)O)[C@@H](O)[C@@H]1O [FLUDARABINE PHOSPHATE],> 30 µM,> 30 µM,> 30 µM,> 30 µM,> 30 µM,> 30 µM,,> 30 µM,
CC#CCn1c(N2CCC[C@@H](N)C2)nc2c1c(=O)n(Cc1nc(C)c3ccccc3n1)c(=O)n2C [LINAGLIPTIN],> 30 µM,> 30 µM,> 30 µM,> 10 µM,> 30 µM,> 10 µM,,,
CC(=O)Nc1c(I)c(C(=O)N[C@H]2C(O)O[C@H](CO)[C@@H](O)[C@@H]2O)c(I)c(N(C)C(C)=O)c1I (stereo partly drawn) [METRIZAMIDE],,> 10 µM,> 10 µM,> 10 µM,> 10 µM,> 10 µM,> 30 µM,> 10 µM,
CC(=O)O[C@H]1C[C@@H]2CC[C@@H]3[C@H](CC[C@@]4(C)[C@H]3C[C@H]([N+]3(C)CCCCC3)[C@@H]4OC(C)=O)[C@@]2(C)C[C@@H]1[N+]1(C)CCCCC1 [PANCURONIUM],,> 10 µM,> 10 µM,> 10 µM,> 10 µM,> 10 µM,,> 10 µM,
CC1(C)C(C=C(Cl)Cl)C1C(=O)OCc1cccc(Oc2ccccc2)c1 (stereo not drawn) [PERMETHRIN],,> 10 µM,> 10 µM,18.2 µM,> 10 µM,> 10 µM,,> 10 µM,
NC(=O)CCC/N=C(\c1ccc(Cl)cc1)c1cc(F)ccc1O [PROGABIDE],,> 10 µM,> 10 µM,> 10 µM,> 10 µM,> 10 µM,> 30 µM,> 10 µM,> 30 µM
CC(NCCc1ccc(O)cc1)C(O)c1ccc(O)cc1 (stereo not drawn) [RITODRINE],> 30 µM,> 30 µM,> 30 µM,> 30 µM,> 30 µM,14.4 µM,,> 10 µM,
CN1CCN(c2c(F)cc3c(=O)c(C(=O)O)cn4c3c2SCC4)CC1 [RUFLOXACIN],> 30 µM,> 30 µM,> 30 µM,,> 30 µM,> 30 µM,> 30 µM,> 30 µM,> 30 µM
CC(C)CC(N(C)C)C1(c2ccc(Cl)cc2)CCC1 (stereo not drawn) [SIBUTRAMINE],> 30 µM,> 30 µM,> 30 µM,> 10 µM,> 30 µM,,> 30 µM,19 µM,
[H]/N=C(/N)N[C@H]1[C@H](O)[C@@H](O)[C@H](O[C@@H]2O[C@@H](C)[C@](O)(C=O)[C@H]2O[C@@H]2O[C@@H](CO)[C@H](O)[C@@H](O)[C@@H]2NC)[C@@H](N/C(N)=N\[H])[C@@H]1O [STREPTOMYCIN],> 30 µM,> 30 µM,> 30 µM,> 30 µM,> 30 µM,> 30 µM,> 30 µM,> 30 µM,
COc1c(O[C@@H]2O[C@H](CO)[C@@H](O)[C@H](O)[C@H]2O)cc2c(c1OC)-c1ccc(SC)c(=O)cc1[C@@H](NC(C)=O)CC2 [THIOCOLCHICOSIDE],> 30 µM,> 30 µM,> 30 µM,,> 30 µM,> 30 µM,> 30 µM,> 30 µM,> 30 µM
CN1c2ccccc2C(NCCCCCCC(=O)O)c2ccc(Cl)cc2S1(=O)=O (stereo not drawn) [TIANEPTINE],> 30 µM,> 30 µM,> 30 µM,,> 30 µM,> 30 µM,> 30 µM,> 30 µM,> 30 µM
Cc1cccc(N(C)C(=S)Oc2ccc3ccccc3c2)c1 [TOLNAFTATE],,> 10 µM,> 10 µM,> 10 µM,> 10 µM,> 10 µM,,> 10 µM,
COc1cc2c(Nc3ccc(Br)cc3F)ncnc2cc1OCC1CCN(C)CC1 [VANDETANIB],> 10 µM,> 10 µM,> 10 µM,,> 30 µM,> 30 µM,> 30 µM,21 µM,> 30 µM
COc1ccc(C(CN(C)C)C2(O)CCCCC2)cc1 (stereo not drawn) [VENLAFAXINE],> 30 µM,> 30 µM,> 30 µM,5.5 µM,> 30 µM,> 10 µM,,> 10 µM,> 30 µM
C=CC(N)CCC(=O)O (stereo not drawn) [VIGABATRIN],,> 10 µM,> 10 µM,> 10 µM,> 10 µM,> 10 µM,> 30 µM,> 10 µM,
N#C[C@@H]1CCCN1C(=O)CNC12CC3CC(CC(O)(C3)C1)C2 [VILDAGLIPTIN],> 30 µM,> 30 µM,> 30 µM,> 30 µM,> 30 µM,> 30 µM,,> 30 µM,
